Like-named read-outs stand apart in the source and are kept apart here.
Molecular target: NS5B polymerase (Hepatitis C virus genotype 1b, UniProt P26663)
Assay: HCV NS5B polymerase inhibition assay (streptavidin-coated FlashPlate, [α-33P]GTP incorporation)
Format: biochemical
Description: Compounds were tested for HCV polymerase inhibition. Assays were performed in a 96-well streptavidin-coated FlashPlate using 20 nM enzyme, 0.5 μCi of [α-^33P]GTP, 0.6 μM GTP, and 250 nM 5′biotinylated oligo (rG13)/poly rC in 20 mM Tris-HCl, pH 7.5, 5 mM MgCl2, 5 mM dithiothreitol, […] bovine serum albumin, and 100 U/mL RNAse inhibitor. The reaction was stopped by aspiration after 75 min at 28° C. and the plate was washed several times. After washing and drying the plate, incorporated radioactivity was counted using a Microbeta scintillation counter. IC50 values were calculated relative to the uninhibited control and inhibition data were fitted to a 4-parameter IC50 equation.

[1] = 20 nM enzyme, 75 min at 28° C., read-out: NS5B Polymerase IC50

NS5B polymerase, sequence (P26663 2420-3010): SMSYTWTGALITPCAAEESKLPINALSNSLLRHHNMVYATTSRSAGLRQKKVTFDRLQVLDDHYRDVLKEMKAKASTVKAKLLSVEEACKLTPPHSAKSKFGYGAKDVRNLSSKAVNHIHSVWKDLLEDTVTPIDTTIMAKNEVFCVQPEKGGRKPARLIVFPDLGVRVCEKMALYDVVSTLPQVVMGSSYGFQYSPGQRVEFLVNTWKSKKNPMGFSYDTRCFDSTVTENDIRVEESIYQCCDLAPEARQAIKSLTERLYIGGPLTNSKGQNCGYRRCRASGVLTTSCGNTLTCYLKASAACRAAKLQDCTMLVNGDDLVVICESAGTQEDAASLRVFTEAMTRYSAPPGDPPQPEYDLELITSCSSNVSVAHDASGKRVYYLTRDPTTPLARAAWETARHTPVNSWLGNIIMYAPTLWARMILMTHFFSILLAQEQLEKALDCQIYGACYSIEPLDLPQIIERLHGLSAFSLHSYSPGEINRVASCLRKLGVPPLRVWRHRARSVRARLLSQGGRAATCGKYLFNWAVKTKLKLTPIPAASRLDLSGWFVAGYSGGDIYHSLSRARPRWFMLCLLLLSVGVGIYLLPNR

IC50 [1] | Structure (SMILES) | IC50
100 to 3000 nM | CC(C)CCn1c(=O)c(C2=CS(=O)(=O)c3cc(N(C)S(C)(=O)=O)ccc3N2)c(O)c2cccn21 [Example 7, N-{3-[4-Hydroxy-1-(3-methyl-butyl)-2-oxo-1,2-dihydro-pyrrolo[1,2-b]pyridazin-3-yl]-1,1-dioxo-1,4-dihydro-1λ^6-benzo[1,4]thiazin-7-yl}-N-methyl-methanesulfonamide] | –
< 100 nM | CS(=O)(=O)Nc1ccc2c(c1)S(=O)(=O)N=C(c1c(O)c3cccn3n(Cc3ccc(F)cc3)c1=O)N2 [Example 9, N-{3-[1-(4-Fluoro-benzyl)-4-hydroxy-2-oxo-1,2-dihydro-pyrrolo[1,2-b]pyridazin-3-yl]-1,1-dioxo-1,4-dihydro-1λ^6-benzo[1,2,4]thiadiazin-7-yl}-methanesulfonamide] | –
< 100 nM | CC(C)CCn1c(=O)c(C2=CS(=O)(=O)c3cc(NS(C)(=O)=O)ccc3N2)c(O)c2cccn21 [Example 16, N-{3-[4-Hydroxy-1-(3-methyl-butyl)-2-oxo-1,2-dihydro-pyrrolo[1,2-b]pyridazin-3-yl]-1,1-dioxo-1,4-dihydro-1λ^6-benzo[1,4]thiazin-7-yl}-methanesulfonamide] | –
100 to 3000 nM | CC(C)CCn1c(=O)c(C2=NS(=O)(=O)c3cc(NS(C)(=O)=O)ccc3N2)c(O)c2cc(C#N)cn21 [Example 15, N-{3-[6-Cyano-4-hydroxy-1-(3-methyl-butyl)-2-oxo-1,2-dihydro-pyrrolo[1,2-b]pyridazin-3-yl]-1,1-dioxo-1,4-dihydro-1λ^6-benzo[1,2,4]thiadiazin-7-yl}-methanesulfonamide] | –
100 to 3000 nM | CN(c1ccc2c(c1)S(=O)(=O)N=C(c1c(O)c3cccn3n(Cc3ccc(F)cc3)c1=O)N2)S(C)(=O)=O [Example 10, N-{3-[1-(4-Fluoro-benzyl)-4-hydroxy-2-oxo-1,2-dihydro-pyrrolo[1,2-b]pyridazin-3-yl]-1-dioxo-1,4-dihydro-1λ^6-benzo[1,2,4]thiadiazin-7-yl}-N-methyl-methanesulfonamide] | –
100 to 3000 nM | O=c1c(C2=NS(=O)(=O)c3ccccc3N2)c(O)c2cccn2n1Cc1ccc(F)cc1 [Example 12, 3-(1,1-Dioxo-1,4-dihydro-1λ^6-benzo[1,2,4]thiadiazin-3-yl)-1-(4-fluoro-benzyl)-4-hydroxy-pyrrolo[1,2-b]pyridazin-2-one] | –
< 100 nM | CC(C)(C)CCn1c(=O)c(C2=NS(=O)(=O)c3cc(NS(C)(=O)=O)ccc3N2)c(O)c2cccn21 [Example 4, N-{3-[1-(3,3-Dimethyl-butyl)-4-hydroxy-2-oxo-1,2-dihydro-pyrrolo[1,2-b]pyridazin-3-yl]-1,1-dioxo-1,4-dihydro-1λ^6-benzo[1,2,4]thiadiazin-7-yl}-methanesulfonamide] | –
100 to 3000 nM | CC(C)CCn1c(=O)c(C2=NS(=O)(=O)c3cc(NS(=O)(=O)C4CC4)ccc3N2)c(O)c2cccn21 [Example 13, Cyclopropanesulfonic acid {3-[4-hydroxy-1-(3-methyl-butyl)-2-oxo-1,2-dihydro-pyrrolo[1,2-b]pyridazin-3-yl]-1,1-dioxo-1,4-dihydro-1λ^6-benzo[1,2,4]thiadiazin-7-yl}-amide] | –
100 to 3000 nM | O=c1c(C2=NS(=O)(=O)c3cc(C4CCCS4(=O)=O)ccc3N2)c(O)c2cccn2n1Cc1ccc(F)cc1 (centres unmarked) [Example 11, 3-[7-(1,1-Dioxo-tetrahydro-1λ^6-thiophen-2-yl)-1,1-dioxo-1,4-dihydro-1λ^6-benzo[1,2,4]thiadiazin-3-yl]-1-(4-fluoro-benzyl)-4-hydroxy-pyrrolo[1,2-b]pyridazin-2-one] | –
< 100 nM | CN(c1ccc2c(c1)S(=O)(=O)N=C(c1c(O)c3cccn3n(CCC(C)(C)C)c1=O)N2)S(C)(=O)=O [Example 5, N-{3-[1-(3,3-Dimethyl-butyl)-4-hydroxy-2-oxo-1,2-dihydro-pyrrolo[1,2-b]pyridazin-3-yl]-1,1-dioxo-1,4-dihydro-1λ^6-benzo[1,2,4]thiadiazin-7-yl}-N-methyl-methanesulfonamide] | –

The next lines start with the molecule.

Structure (SMILES) | IC50 [1] | IC50
CC(C)CCn1c(=O)c(C2=NS(=O)(=O)c3ccccc3N2)c(O)c2cccn21 [Example 1, 3-(1,1-Dioxo-1,4-dihydro-1λ^6-benzo[1,2,4]thiadiazin-3-yl)-4-hydroxy-1-(3-methyl-butyl)-pyrrolo[1,2-b]pyridazin-2-one] | 100 to 3000 nM | –
CC(C)CCn1c(=O)c(C2=NS(=O)(=O)c3cc(N(C)S(C)(=O)=O)ccc3N2)c(O)c2cccn21 [Example 6, N-{3-[4-Hydroxy-1-(3-methyl-butyl)-2-oxo-1,2-dihydro-pyrrolo[1,2-b]pyridazin-3-yl]-1,1-dioxo-1,4-dihydro-1λ^6-benzo[1,2,4]thiadiazin-7-yl}-N-methyl-methanesulfonamide] | 100 to 3000 nM | –
COc1ccc2c(c1)S(=O)(=O)N=C(c1c(O)c3cccn3n(CCC(C)C)c1=O)N2 [Example 2, 4-Hydroxy-3-(7-methoxy-1,1-dioxo-1,4-dihydro-1λ^6-benzo[1,2,4]thiadiazin-3-yl)-1-(3-methyl-butyl)-pyrrolo[1,2-b]pyridazin-2-one] | 100 to 3000 nM | –
CC(C)CCn1c(=O)c(C2=NS(=O)(=O)c3cc(NS(C)(=O)=O)ccc3N2)c(O)c2cc(F)cn21 [Example 14, N-{3-[6-Fluoro-4-hydroxy-1-(3-methyl-butyl)-2-oxo-1,2-dihydro-pyrrolo[1,2-b]pyridazin-3-yl]-1,1-dioxo-1,4-dihydro-1λ^6-benzo[1,2,4]thiadiazin-7-yl}-methanesulfonamide] | < 100 nM | –
CC(C)CCn1c(=O)c(C2=Nc3ccc(NS(C)(=O)=O)cc3S(=O)(=O)N2)c(O)c2cccn21 [Example 3, N-{3-[4-Hydroxy-1-(3-methyl-butyl)-2-oxo-1,2-dihydro-pyrrolo[1,2-b]pyridazin-3-yl]-1,1-dioxo-1,4-dihydro-1λ^6-benzo[1,2,4]thiadiazin-7-yl}-methanesulfonamide] | – | < 100 nM
CS(=O)(=O)Nc1ccc2c(c1)S(=O)(=O)N=C(c1c(O)c3cccn3n(Cc3ccc(F)c(Cl)c3)c1=O)N2 [Example 17, N-{3-[1-(3-Chloro-4-fluoro-benzyl)-4-hydroxy-2-oxo-1,2-dihydro-pyrrolo[1,2-b]pyridazin-3-yl]-1,1-dioxo-1,4-dihydro-1λ^6-benzo[1,2,4]thiadiazin-7-yl}-methanesulfonamide] | – | < 100 nM
CC(C)(C)CCn1c(=O)c(C2=CS(=O)(=O)c3cc(NS(C)(=O)=O)ccc3N2)c(O)c2cccn21 [Example 8, N-{3-[1-(3,3-Dimethyl-butyl)-4-hydroxy-2-oxo-1,2-dihydro-pyrrolo[1,2-b]pyridazin-3-yl]-1,1-dioxo-1,4-dihydro-1λ^6-benzo[1,4]thiazin-7-yl}-methanesulfonamide] | < 100 nM | –

From patent publication US7842838B2, “Pyrro[1,2-b]pyridazinone intermediates” (Anadys Pharmaceuticals, Inc., priority 2006, dated 2010)
